# Results reported in ChEMBL document CHEMBL3508140 (2016).
# Tests used:
# [1] = Terminal half-life of 4-dem-daunorubicin following intravenous 4-dem-daunorubicin at 1.0 mg.Kg-1 dose in dog; format: ADME, organism-based, Canis lupus familiaris; set-up: dose 1 mg.Kg-1, dosed compound id 2.46809e+06, dosed compound name Idarubicin, route intravenous; conditions: Beagle, plasma
# [2] = Volume of distribution of 4-dem-daunorubicin following intravenous 4-dem-daunorubicin at 1.0 mg.Kg-1 dose in dog; format: ADME, organism-based, Canis lupus familiaris; set-up: dose 1 mg.Kg-1, dosed compound id 2.46809e+06, dosed compound name Idarubicin, route intravenous; conditions: Beagle, plasma
# [3] = Plasma clearance of 4-dem-daunorubicin following intravenous 4-dem-daunorubicin at 1.0 mg.Kg-1 dose in dog; format: ADME, organism-based, Canis lupus familiaris; set-up: dose 1 mg.Kg-1, dosed compound id 2.46809e+06, dosed compound name Idarubicin, route intravenous; conditions: Beagle, read-out: Clp
# [4] = Mortality occurred following intravenous idarubicin at 0.6 mg.Kg-1 per week in rat; format: toxicity, organism-based, SD; set-up: dose 0.6 mg.Kg-1, dosed compound id 2.46809e+06, dosed compound name Idarubicin, dose level Intermediate, gender Mixed, regimen Once per week, route intravenous, sampling time 13 Week, study doses 0/0.3/0.6/1 mg.Kg-1; conditions: in vivo
# [5] = (§1) Decrease in leukocytes observed following intravenous idarubicin at 0.3 mg.Kg-1 per week in rat; format: toxicity, organism-based, SD, Blood; set-up: dose 0.3 mg.Kg-1, dosed compound id 2.46809e+06, dosed compound name Idarubicin, dose level Low, gender Mixed, regimen Once per week, route intravenous, sampling time 8 Week, study doses 0/0.3/0.6/1 mg.Kg-1; conditions: in vivo
# [6] = (§2) Decrease in leukocytes observed following intravenous idarubicin at 0.6 mg.Kg-1 per week in rat; format: toxicity, organism-based, SD, Blood; set-up: dose 0.6 mg.Kg-1, dosed compound id 2.46809e+06, dosed compound name Idarubicin, dose level Intermediate, gender Mixed, regimen Once per week, route intravenous, sampling time 4 Week, study doses 0/0.3/0.6/1 mg.Kg-1; conditions: in vivo
# [7] = Increase in serum triglycerides level following intravenous idarubicin at 0.3 mg.Kg-1 per week in rat; format: toxicity, organism-based, SD; set-up: dose 0.3 mg.Kg-1, dosed compound id 2.46809e+06, dosed compound name Idarubicin, dose level Low, gender Mixed, regimen Once per week, route intravenous, sampling time 8-22 Week, study doses 0/0.3/0.6/1 mg.Kg-1; conditions: in vivo
# [8] = Increase in serum triglycerides level following intravenous idarubicin at 0.6 mg.Kg-1 per week in rat; format: toxicity, organism-based, SD; set-up: dose 0.6 mg.Kg-1, dosed compound id 2.46809e+06, dosed compound name Idarubicin, dose level Intermediate, gender Mixed, regimen Once per week, route intravenous, sampling time 8-22 Week, study doses 0/0.3/0.6/1 mg.Kg-1; conditions: in vivo
# [9] = Increase in serum total cholesterol level following intravenous idarubicin at 0.3 mg.Kg-1 per week in rat; format: toxicity, organism-based, SD; set-up: dose 0.3 mg.Kg-1, dosed compound id 2.46809e+06, dosed compound name Idarubicin, dose level Low, gender Mixed, regimen Once per week, route intravenous, sampling time 8-22 Week, study doses 0/0.3/0.6/1 mg.Kg-1; conditions: in vivo
# [10] = Increase in serum total cholesterol level following intravenous idarubicin at 0.6 mg.Kg-1 per week in rat; format: toxicity, organism-based, SD; set-up: dose 0.6 mg.Kg-1, dosed compound id 2.46809e+06, dosed compound name Idarubicin, dose level Intermediate, gender Mixed, regimen Once per week, route intravenous, sampling time 8-22 Week, study doses 0/0.3/0.6/1 mg.Kg-1; conditions: in vivo
# [11] = Increase in serum phospholipid level following intravenous idarubicin at 0.3 mg.Kg-1 per week in rat; format: toxicity, organism-based, SD; set-up: dose 0.3 mg.Kg-1, dosed compound id 2.46809e+06, dosed compound name Idarubicin, dose level Low, gender Mixed, regimen Once per week, route intravenous, sampling time 8-22 Week, study doses 0/0.3/0.6/1 mg.Kg-1; conditions: in vivo
# [12] = Increase in serum phospholipid level following intravenous idarubicin at 0.6 mg.Kg-1 per week in rat; format: toxicity, organism-based, SD; set-up: dose 0.6 mg.Kg-1, dosed compound id 2.46809e+06, dosed compound name Idarubicin, dose level Intermediate, gender Mixed, regimen Once per week, route intravenous, sampling time 8-22 Week, study doses 0/0.3/0.6/1 mg.Kg-1; conditions: in vivo
# [13] = Incidence of persistent proteinuria following intravenous idarubicin at 0.3 mg.Kg-1 per week in rat; format: toxicity, organism-based, SD; set-up: dose 0.3 mg.Kg-1, dosed compound id 2.46809e+06, dosed compound name Idarubicin, dose level Low, gender Mixed, regimen Once per week, route intravenous, sampling time 36 Week, study doses 0/0.3/0.6/1 mg.Kg-1; conditions: in vivo
# [14] = Incidence of persistent proteinuria following intravenous idarubicin at 0.6 mg.Kg-1 per week in rat; format: toxicity, organism-based, SD; set-up: dose 0.6 mg.Kg-1, dosed compound id 2.46809e+06, dosed compound name Idarubicin, dose level Intermediate, gender Mixed, regimen Once per week, route intravenous, sampling time 36 Week, study doses 0/0.3/0.6/1 mg.Kg-1; conditions: in vivo
# [15] = Incidence of leukocyturia following intravenous idarubicin at 0.3 mg.Kg-1 per week in rat; format: toxicity, organism-based, SD; set-up: dose 0.3 mg.Kg-1, dosed compound id 2.46809e+06, dosed compound name Idarubicin, dose level Low, gender Mixed, regimen Once per week, route intravenous, sampling time 36 Week, study doses 0/0.3/0.6/1 mg.Kg-1; conditions: in vivo
# [16] = Incidence of leukocyturia following intravenous idarubicin at 0.6 mg.Kg-1 per week in rat; format: toxicity, organism-based, SD; set-up: dose 0.6 mg.Kg-1, dosed compound id 2.46809e+06, dosed compound name Idarubicin, dose level Intermediate, gender Mixed, regimen Once per week, route intravenous, sampling time 36 Week, study doses 0/0.3/0.6/1 mg.Kg-1; conditions: in vivo
# [17] = Decrease in albumin due to persistent proteinuria following intravenous idarubicin at 0.3 mg.Kg-1 per week in rat; format: toxicity, organism-based, SD, Serum; set-up: dose 0.3 mg.Kg-1, dosed compound id 2.46809e+06, dosed compound name Idarubicin, dose level Low, gender Mixed, regimen Once per week, route intravenous, sampling time 36 Week, study doses 0/0.3/0.6/1 mg.Kg-1; conditions: in vivo
# [18] = Decrease in albumin due to persistent proteinuria following intravenous idarubicin at 0.6 mg.Kg-1 per week in rat; format: toxicity, organism-based, SD, Serum; set-up: dose 0.6 mg.Kg-1, dosed compound id 2.46809e+06, dosed compound name Idarubicin, dose level Intermediate, gender Mixed, regimen Once per week, route intravenous, sampling time 36 Week, study doses 0/0.3/0.6/1 mg.Kg-1; conditions: in vivo
# [19] = as §1; format: toxicity, organism-based, SD, Blood; set-up: dosed compound id 2.46809e+06, dosed compound name Idarubicin, dose level Low, gender Mixed, route intravenous, sampling time 4 Week, study doses 0/0.3/0.6/1 mg.Kg-1; conditions: in vivo
# [20] = as §2; format: toxicity, organism-based, SD, Blood; set-up: dosed compound id 2.46809e+06, dosed compound name Idarubicin, dose level Intermediate, gender Mixed, route intravenous, sampling time 8 Week, study doses 0/0.3/0.6/1 mg.Kg-1; conditions: in vivo
smiles,measurement,setting,value
CC(=O)[C@]1(O)Cc2c(O)c3c(c(O)c2[C@@H](O[C@H]2C[C@H](N)[C@H](O)[C@H](C)O2)C1)C(=O)c1ccccc1C3=O [IDARUBICIN],half-life,[1],6 min
same,Vd,[2],34.5 L/kg
same,clearance,[3],711 mL/min
same,Mortality,[4],"OUTCOME = Observed, N_AFFECTED = 12"
same,WBC_CHANGE,[5],35%
same,WBC_CHANGE,[6],50%
same,TRIG_CHANGE,[7],OUTCOME = Increased
same,TRIG_CHANGE,[8],OUTCOME = Increased
same,CHOL_CHANGE,[9],OUTCOME = Increased
same,CHOL_CHANGE,[10],OUTCOME = Increased
same,PHOSLPD_CHANGE,[11],OUTCOME = Increased
same,PHOSLPD_CHANGE,[12],OUTCOME = Increased
same,Incidence,[13],OUTCOME = Observed
same,Incidence,[14],OUTCOME = Observed
same,Incidence,[15],OUTCOME = Observed
same,Incidence,[16],OUTCOME = Observed
same,ALB_CHANGE,[17],OUTCOME = Decreased
same,ALB_CHANGE,[18],OUTCOME = Decreased
same,WBC_CHANGE,[19],35%
same,WBC_CHANGE,[20],55%
